Source: ChEMBL document CHEMBL4330071 (Eur J Med Chem, 2019)

Biological target: Epidermal growth factor receptor (Homo sapiens) (UniProt P00533)
Experiment: Inhibition of human EGFR assessed as residual activity at 10 uM using poly[Glu:Tyr] (4:1) as substrate preincubated for 20 mins followed by [gamma-33P]-ATP addition and measured after 120 mins by Hotspot assay relative to control

Chain of Epidermal growth factor receptor (Homo sapiens) (P00533 whole entry): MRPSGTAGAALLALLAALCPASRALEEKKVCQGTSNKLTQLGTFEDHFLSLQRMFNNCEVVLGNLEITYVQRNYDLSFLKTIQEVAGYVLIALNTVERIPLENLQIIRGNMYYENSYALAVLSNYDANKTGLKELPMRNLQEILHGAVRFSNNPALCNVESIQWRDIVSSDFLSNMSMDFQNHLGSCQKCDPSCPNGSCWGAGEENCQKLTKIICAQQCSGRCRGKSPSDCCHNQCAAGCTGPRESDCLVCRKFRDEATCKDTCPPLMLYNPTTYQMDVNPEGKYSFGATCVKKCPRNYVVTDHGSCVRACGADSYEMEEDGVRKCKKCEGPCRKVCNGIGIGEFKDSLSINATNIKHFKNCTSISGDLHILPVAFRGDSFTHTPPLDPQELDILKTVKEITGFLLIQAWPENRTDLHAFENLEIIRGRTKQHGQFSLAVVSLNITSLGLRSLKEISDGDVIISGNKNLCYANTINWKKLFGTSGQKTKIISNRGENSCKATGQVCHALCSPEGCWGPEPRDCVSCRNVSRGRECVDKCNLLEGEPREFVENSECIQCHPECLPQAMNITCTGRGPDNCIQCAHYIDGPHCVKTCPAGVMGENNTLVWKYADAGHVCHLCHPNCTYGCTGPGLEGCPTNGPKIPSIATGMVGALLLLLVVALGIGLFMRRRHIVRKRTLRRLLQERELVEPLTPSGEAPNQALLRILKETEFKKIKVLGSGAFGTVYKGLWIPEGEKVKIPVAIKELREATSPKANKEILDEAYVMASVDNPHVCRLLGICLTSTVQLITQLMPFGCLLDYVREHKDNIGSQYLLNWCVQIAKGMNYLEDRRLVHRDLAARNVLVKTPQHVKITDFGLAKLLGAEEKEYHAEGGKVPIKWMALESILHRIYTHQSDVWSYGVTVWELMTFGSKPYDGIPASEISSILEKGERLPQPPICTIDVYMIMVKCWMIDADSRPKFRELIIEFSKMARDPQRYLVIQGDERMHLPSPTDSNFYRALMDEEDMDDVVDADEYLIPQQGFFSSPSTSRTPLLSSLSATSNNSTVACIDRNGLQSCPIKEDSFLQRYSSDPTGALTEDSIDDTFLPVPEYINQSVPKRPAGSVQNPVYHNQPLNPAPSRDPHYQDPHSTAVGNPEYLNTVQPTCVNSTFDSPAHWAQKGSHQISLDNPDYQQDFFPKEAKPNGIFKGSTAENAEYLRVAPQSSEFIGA

SMILES: CN1CCC(Nc2ccc(C(=O)Nc3cc(-c4cc(C#N)cs4)n[nH]3)cc2)CC1
- Activity: 65.5%
